According to patent publication US20130165368A1, “ANTIMICROBIAL COMPOUNDS” (priority 2010, published 2013):
≈ marks a conversion by molar mass, not a printed value. Like-named read-outs stand apart in the source and are kept apart here.

Columns and labels:
Type in all cases: cell-based
Escherichia coli = assay: MIC agar dilution, micro-organism 1 (10418); conditions: Escherichia coli 10418
Description: (§1) Throughout the period of testing the microbial strains were subcultured and incubated for 18-20 hours at 37° C. on a weekly basis. Horse blood agar plates were used to sustain the micro-organisms both prior to and throughout testing. The alkoxylated alkanols listed in Table II below were obtained (these are obtainable from Sigma-Aldrich Company Ltd, Dorset, England), each having a GC purity of at least 97%.
(§2) Molar equivalent concentrations were used to allow comparison between compounds of differing molecular mass. Due to weighing difficulties, any compound in solid form was melted in a water bath prior to dilution. To make ten-times strength concentrations, which takes into account agar dilution, 0.0352 mmol of each compound was weighed into plastic universal bottles and 4 mL of sterile distilled water (SDW) was added. To produce a homogenous emulsion the universals were vortexed; once achieved the emulsions were serial diluted by adding 2 mL to 2 mL of SDW.
(§3) Myristyl alcohol and lauryl alcohol were re-weighed and dissolved in 25 μL of the polar solvent 1-methyl-2-pyrrolidone (M6762; Sigma-Aldrich) in sterile glass universals due to an inability to achieve an even suspension. To maintain an even emulsion in the presence of SDW 37.5 μL of the non-ionic detergent Tween 20 (P1379, Sigma-Aldrich) was also added. 3.9375 mL of SDW was added to these, to create a 4 mL volume; they were vortexed and diluted as before.
(§4) For every 100 mL of Isosensitest agar (IST) (CM0471; Oxoid, Basingstoke, England), 3.1 g of the IST powder was added to 100 mL SDW (as per manufacturer's instructions) and sterilised for 15 minutes at 121° C. Once sterilised, the molten agar was cooled to 50° C. in a water-bath. Subsequently 4.8 g of CCEY powder (BC2160; Bioconnections, Wetherby, England), also known as Brazier's medium, was added to 100 mL SDW for every 100 mL of agar needed. This was then sterilised for 15 minutes at 121° C. Once sterilised the molten agar was cooled to 50° C. in a water-bath and 4 mL of egg-yolk emulsion (S2073; TCS Biosciences Ltd, Buckingham, United Kingdom) and 1 mL of lysed defibrinated horse blood (HB035; TCS Biosciences Ltd, Buckingham, United Kingdom) were also added for every 100 mL needed. Horse blood lysis is achieved by dilution to half concentration with SDW; when fully lysed the mixture will turn dark red in colour.
(§5) 18 mL agar was added to each universal and then poured into sterile Petri dishes. This step creates a 1/10 dilution resulting in agar plates of the required strength. Control plates for each set of strains were created by adding 18 mL of agar to 2 mL of SDW.
(§6) Suspensions of each bacterial species were prepared with a density equal to that of a 0.5 McFarland standard using a densitometer. All suspensions were made using sterile distilled water and fresh 18-20 hour cultures. As a 0.5 McFarland standard contains 1.5×10^8 CFU/mL and the multipoint inoculators applies 1 μL spots of liquid, each bacterial suspension was diluted 1/15 (20 μL suspension to 280 μL sterile distilled water).
(§7) Bacterial suspensions were prepared from fresh 18-24 hour cultures as previously described. 1 μL of each strain was inoculated onto all 100 agar plates containing a different chemical concentration and the 2 control plates. This was done using a multipoint inoculator which inoculates 20 strains per plate. All plates were incubated for 22 hours at 37° C. in aerobic conditions.
(§8) Each plate was examined for bacterial growth after 22 and 48 hours, with each being incubated in between examinations. A positive result was recorded as growth of ≧10 colonies. A negative result was recorded as growth of <10 colonies as this is equivalent to 99.9% inhibition. The lowest concentration of chemical that inhibited growth was recorded as the MIC. The results are recorded in Table IV below, where the numbers are quoted in mmol/L. […]

Klebsiella pneumoniae = assay: MIC agar dilution, micro-organism 2 (9528); conditions: Klebsiella pneumoniae 9528
Description: as §1, §2, §3, §4, §5, §6, §7
(§9) Each plate was examined for bacterial growth after 22 and 48 hours, with each being incubated in between examinations. A positive result was recorded as growth of ≧10 colonies. A negative result was recorded as growth of <10 colonies as this is equivalent to 99.9% inhibition. The lowest concentration of chemical that inhibited growth was recorded as the MIC. The results are recorded in Table IV below, where the numbers are quoted in mmol/L.
(§10) Further experiments have also been conducted to determine the MIC of a number of other compositions as follows. […]

Providencia rettgeri = assay: MIC agar dilution, micro-organism 3 (7475); conditions: Providencia rettgeri 7475
Description: as §1, §2, §3, §4, §5, §6, §7, §8

Enterobacter cloacae = assay: MIC agar dilution, micro-organism 4 (11936); conditions: Enterobacter cloacae 11936
Description: as §1, §2, §3, §4, §5, §6, §7, §9, §10

Serratia marcescens = assay: MIC agar dilution, micro-organism 5 (10211); conditions: Serratia marcescens 10211
Description: as §1, §2, §3, §4, §5, §6, §7, §9, §10

Salmonella typhimurium = assay: MIC agar dilution, micro-organism 6 (74); conditions: Salmonella typhimurium 74
Description: as §1, §2, §3, §4, §5, §6, §7, §9, §10

Pseudomonas aeruginosa = assay: MIC agar dilution, micro-organism 7 (10662); conditions: Pseudomonas aeruginosa 10662
Description: as §1, §2, §3, §4, §5, §6, §7, §9, §10

Yersinia enterocolitica = assay: MIC agar dilution, micro-organism 8 (11176); conditions: Yersinia enterocolitica 11176
Description: as §1, §2, §3, §4, §5, §6, §7, §9, §10

Burkholderia cepacia = assay: MIC agar dilution, micro-organism 9 (1222); conditions: Burkholderia cepacia 1222
Description: as §1, §2, §3, §4, §5, §6, §7, §9, §10

Acinetobacter baumannii = assay: MIC agar dilution, micro-organism 10 (19606); conditions: Acinetobacter baumannii 19606
Description: as §1, §2, §3, §4, §5, §6, §7, §9, §10

Steptococcus pyogenes = assay: MIC agar dilution, micro-organism 11 (8306); conditions: Steptococcus pyogenes 8306
Description: as §1, §2, §3, §4, §5, §6, §7, §8

[1] = system: Staphylococcus aureus (MRSA); assay: MIC agar dilution, micro-organism 12 (11939); conditions: Staphylococcus aureus (MRSA) 11939
Description: as §1, §2, §3, §4, §5, §6, §7, §8

Staphylococcus aureus = assay: MIC agar dilution, micro-organism 13 (6571); conditions: Staphylococcus aureus 6571
Description: as §1, §2, §3, §4, §5, §6, §7, §8

[2] = system: Staphylococcus epidermidis; assay: MIC agar dilution, micro-organism 14 (11047); conditions: Staphylococcus epidermidis 11047
Description: as §1, §2, §3, §4, §5, §6, §7, §8

Listeria monocytogenes = assay: MIC agar dilution, micro-organism 15 (11994); conditions: Listeria monocytogenes 11994
Description: as §1, §2, §3, §4, §5, §6, §7, §8

Enterococcus faecium = assay: MIC agar dilution, micro-organism 16 (7171); conditions: Enterococcus faecium 7171
Description: as §1, §2, §3, §4, §5, §6, §7, §8

Enterococcus faecalis = assay: MIC agar dilution, micro-organism 17 (775); conditions: Enterococcus faecalis 775
Description: as §1, §2, §3, §4, §5, §6, §7, §8

Bacillus subtilis = assay: MIC agar dilution, micro-organism 18 (9372); conditions: Bacillus subtilis 9372
Description: as §1, §2, §3, §4, §5, §6, §7, §8

Candida albicans = assay: MIC agar dilution, micro-organism 19 (90028); conditions: Candida albicans 90028
Description: as §1, §2, §3, §4, §5, §6, §7, §8

Candida glabrata = assay: MIC agar dilution, micro-organism 20 (3943); conditions: Candida glabrata 3943
Description: as §1, §2, §3, §4, §5, §6, §7, §8

[3] = Salmonella enterica, 48 hrs, read-out: MIC
[4] = Staphylococcus aureus, MRSA, 48 h, 48 hrs, read-out: MIC
[5] = Staphylococcus aureus, 48 h, 48 hrs, read-out: MIC
[6] = Nakaseomyces glabratus, 48 h, 48 hrs, read-out: MIC

Compound: CCCCCCCCCCCCCCCCOCCO [C16E1, ceteth-1]
- MIC (Escherichia coli; 22 hrs): >880 µM
- MIC (Escherichia coli; 48 hrs): >880 µM
- MIC (Klebsiella pneumoniae; 22 hrs): >880 µM
- MIC (Klebsiella pneumoniae; 48 hrs): >880 µM
- MIC (Providencia rettgeri; 22 hrs): >880 µM
- MIC (Providencia rettgeri; 48 hrs): >880 µM
- MIC (Enterobacter cloacae; 22 hrs): >880 µM
- MIC (Enterobacter cloacae; 48 hrs): >880 µM
- MIC (Serratia marcescens; 22 hrs): >880 µM
- MIC (Serratia marcescens; 48 hrs): >880 µM
- MIC (Salmonella typhimurium; 22 hrs): >880 µM
- MIC (Salmonella typhimurium; 48 hrs): >880 µM
- MIC (Pseudomonas aeruginosa; 22 hrs): >880 µM
- MIC (Pseudomonas aeruginosa; 48 hrs): >880 µM
- MIC (Yersinia enterocolitica; 22 hrs): >880 µM
- MIC (Yersinia enterocolitica; 48 hrs): >880 µM
- MIC (Burkholderia cepacia; 22 hrs): >880 µM
- MIC (Burkholderia cepacia; 48 hrs): >880 µM
- MIC (Acinetobacter baumannii; 22 hrs): >880 µM
- MIC (Acinetobacter baumannii; 48 hrs): >880 µM
- MIC (Steptococcus pyogenes; 22 hrs): >880 µM
- MIC (Steptococcus pyogenes; 48 hrs): >880 µM
- MIC ([1]; 22 hrs): >880 µM
- MIC ([1]; 48 hrs): >880 µM
- MIC (Staphylococcus aureus; 22 hrs): >880 µM
- MIC (Staphylococcus aureus; 48 hrs): >880 µM
- MIC ([2]; 22 hrs): >880 µM
- MIC ([2]; 48 hrs): >880 µM
- MIC (Listeria monocytogenes; 22 hrs): >880 µM
- MIC (Listeria monocytogenes; 48 hrs): >880 µM
- MIC (Enterococcus faecium; 22 hrs): >880 µM
- MIC (Enterococcus faecium; 48 hrs): >880 µM
- MIC (Enterococcus faecalis; 22 hrs): >880 µM
- MIC (Enterococcus faecalis; 48 hrs): >880 µM
- MIC (Bacillus subtilis; 22 hrs): >880 µM
- MIC (Bacillus subtilis; 48 hrs): >880 µM
- MIC (Candida albicans; 22 hrs): >880 µM
- MIC (Candida albicans; 48 hrs): >880 µM
- MIC (Candida glabrata; 22 hrs): 880 µM (≈ 252 µg/mL)
- MIC (Candida glabrata; 48 hrs): 880 µM (≈ 252 µg/mL)

Compound: OCCCCCCCCCCCCO [D, 1,12-dodecanediol, reference compound]
- MIC (Escherichia coli; 48 hrs, read-out: MIC): > 880 µM
- MIC (Klebsiella pneumoniae; 48 hrs, read-out: MIC): > 880 µM
- MIC (Providencia rettgeri; 48 hrs, read-out: MIC): > 880 µM
- MIC (Enterobacter cloacae; 48 hrs, read-out: MIC): > 880 µM
- MIC (Serratia marcescens; 48 hrs, read-out: MIC): > 880 µM
- MIC (Salmonella typhimurium; [3]): > 880 µM
- MIC (Pseudomonas aeruginosa; 48 hrs, read-out: MIC): > 880 µM
- MIC (Yersinia enterocolitica; 48 hrs, read-out: MIC): > 880 µM
- MIC (Burkholderia cepacia; 48 hrs, read-out: MIC): > 880 µM
- MIC (Acinetobacter baumannii; 48 hrs, read-out: MIC): > 880 µM
- MIC (Steptococcus pyogenes; 48 h, 48 hrs, read-out: MIC): > 880 µM
- MIC [1, 4]: > 880 µM
- MIC (Staphylococcus aureus; [5]): > 880 µM
- MIC ([2]; 48 hrs, read-out: MIC): > 880 µM
- MIC (Listeria monocytogenes; 48 hrs, read-out: MIC): > 880 µM
- MIC (Enterococcus faecium; 48 hrs, read-out: MIC): > 880 µM
- MIC (Enterococcus faecalis; 48 hrs, read-out: MIC): > 880 µM
- MIC (Bacillus subtilis; 48 hrs, read-out: MIC): > 880 µM
- MIC (Candida albicans; 48 hrs, read-out: MIC): > 880 µM
- MIC (Candida glabrata; [6]): > 880 µM

Compound: OCCOCCOCCCCCCCCCCCCOCCOCCO [DEG2, 3,6,19,22-tetraoxatetracosane-1,24-diol]
- MIC (Escherichia coli; 48 hrs, read-out: MIC): > 880 µM
- MIC (Klebsiella pneumoniae; 48 hrs, read-out: MIC): 880 µM (≈ 333 µg/mL)
- MIC (Providencia rettgeri; 48 hrs, read-out: MIC): > 880 µM
- MIC (Enterobacter cloacae; 48 hrs, read-out: MIC): > 880 µM
- MIC (Serratia marcescens; 48 hrs, read-out: MIC): > 880 µM
- MIC (Salmonella typhimurium; [3]): > 880 µM
- MIC (Pseudomonas aeruginosa; 48 hrs, read-out: MIC): > 880 µM
- MIC (Yersinia enterocolitica; 48 hrs, read-out: MIC): > 880 µM
- MIC (Burkholderia cepacia; 48 hrs, read-out: MIC): > 880 µM
- MIC (Acinetobacter baumannii; 48 hrs, read-out: MIC): > 880 µM
- MIC (Steptococcus pyogenes; 48 h, 48 hrs, read-out: MIC): 880 µM (≈ 333 µg/mL)
- MIC [1, 4]: > 880 µM
- MIC (Staphylococcus aureus; [5]): > 880 µM
- MIC ([2]; 48 hrs, read-out: MIC): > 880 µM
- MIC (Listeria monocytogenes; 48 hrs, read-out: MIC): > 880 µM
- MIC (Enterococcus faecium; 48 hrs, read-out: MIC): > 880 µM
- MIC (Enterococcus faecalis; 48 hrs, read-out: MIC): > 880 µM
- MIC (Bacillus subtilis; 48 hrs, read-out: MIC): > 880 µM
- MIC (Candida albicans; 48 hrs, read-out: MIC): > 880 µM
- MIC (Candida glabrata; [6]): > 880 µM
